Results as given in patent publication US20200268720A1, “METHODS OF USE OF A CLASS IIA HDAC INHIBITOR” (GlaxoSmithKline LLC, priority 2016, published 2020).
“Also recorded” adds a separate entry of the source.

Legend:
Human monocytes = assay: In vitro antigen presenting cell (APC) and T cell proliferation experiments; format: cell-based
Text: Blood was collected from healthy donors according to the guidelines of the American Association of Blood Banks and under an IRB-approved informed consent form was purchased from Research Blood Components (Boston, Mass.). Human monocytes were isolated from buffy coat preparations via positive selection as per the manufacturer's instructions (StemCell Technologies, Catalog #18058). Monocytes were differentiated into antigen presenting cells in RPMI Medium 1640 supplemented with GLUTAMAX™ (GIBCO), fetal bovine serum (10% v/v), IL-4 (10 ng/ml), GM-CSF (50 ng/ml), penicillin (100 U/ml), and streptomycin (100 ug/ml) for 5 days in the presence of either 0.1% (v/v) DMSO or 300 nM TMP195. Cells were collected by washing and incubation with a solution of 5 mM EDTA in PBS (Ca2^+ and Mg2^+-free), prior to flow cytometric analysis of CD80 (Biolegend #305208) and CD86 (Biolegend #305418). Alternatively, harvested APCs were counted and co-cultured in culture medium (no DMSO or inhibitor present) with heterologous CD4^+ T cells (isolated from buffy coats via negative selection following manufacturer's instructions, StemCell Technologies, Catalog #15062) that had been labeled with CELLTRACE™ CFSE (ThermoFisher catalog #C34554) at a 10:1 T cell:APC ratio. T cell proliferation was stimulated by the addition of 200 pg/ml anti-CD3 (Biolegend Catalog #317326), and proliferation was quantified after 72 hours of co-culture by the dilution of CFSE using FlowJo software (version 9.4, Treestar, Inc.).

tumor macrophages [1] = assay: Macrophage phagocytosis and activation in tumors (IHC, immunocytochemistry, flow cytometry); format: in vivo, mouse
Method: Tumor cells were acquired from three DMSO and three TMP195 5-day treated autochthonous MMTV-PyMT mice. CD11b^+ cells were purified using the automacs (Miltenyi) automated machine according to manufacturer's protocol. CD11b cells were labeled with a CD11b-biotin antibody (101204, BioLegend) and retrieved with ultrapure biotin beads (Miltenyi 130-105-637). Following purification, CD11b^+ cells were cytospun at 300 rpm for 5 minutes onto slides. Cells were fixed in 4% PFA/Sucrose solution for 5 minutes at RT and stored in 4° C. until ready for use. Upon experimentation, slides were permeablized with 0.03% Triton-X for 10 minutes, followed by three 5 minute rinses with 1× PBS. Samples were blocked with 10% Normal Goat Serum (NGS) in 1×PBS for 1 hour at RT. Next cells were stained for the following antibodies anti-mouse/human CD11b (101201, BioLegend), anti-mouse F4/80 (Bio-Rad, MCA497R), and Alexa Fluor 594 anti-mouse CD326 (Ep-CAM) (118222, BioLegend) at 1:100, 1:50 and 1:25 dilution in 1% NGS/1×PBS respectively overnight at 4° C. The following morning, samples were rinsed three times with 1×PBS for five minutes each, replaced with Alexa Fluor 488 goat anti-rat IgG (405418, BioLegend) at 1:200 dilution in 1% NGS, and incubated for one hour at RT. All samples were counterstained with Dapi (P36930, Life Technologies) at 1:1000 dilution in 1% NGS. Next, the samples were rinsed three times for 5 minutes each with 1×PBS. Slides were dehydrated 2× with 95% ethanol and 1× with 100% ethanol. Coverslips were mounted using Prolong Gold antifade reagent (936930, Life Technologies) and imaged with Leica SP5X: Laser Scanning Confocal microscope at 40× magnification. For analysis immunocytochemistry images were assessed by using a co-localization pipeline. In general, the pipeline identified a primary image (nucleus) and a secondary image (CD11b^+). The overlapped images were identified as a “cell”. To avoid background signal, a minimum threshold was applied for the protein of interest (CD11b, F480 and EPCAM) and only the masked objects that had fell within the given dynamic range were considered CD11b or F480 positive. Finally the overlapped image identified as “cell” was masked with the threshold image of the EPCAM. Objects identified as positive for CD11b and EPCAM or F480 and EPCAM were normalized to the number of CD11b or F480 positive cells per image, and portrayed as an average percentage. A total of 60 individual CD11b+ cells and a total of 100 individual F480^+ cells were analyzed from each treatment group.

[2] = tested on: human breast cancer cell lines (BT20, MCF7, HCC202, T47D, MDA-MB-453 and MDA-MB-436); assay: In vitro cell death assay (CellTiter-Glo), human lines; format: cell-based; conditions: 0, 0.1, 1, 10 μM, 48 hours
Method: The human breast cancer cell lines (BT20, MCF7, HCC202, T47D, MDA-MB-453 and MDA-MB-436) were obtained from ATCC. Prior to use, cell line authentication was performed by either STR profiling at Dana-Farber Cancer Institute or by Fluidigm based fingerprinting with a panel of SNPs at The Broad Institute. Cell lines were tested for mycoplasma with the MycoAlert PLUS Mycoplasma Detection Kit (Lonza LT07) according to manufacturer's instructions. Mouse breast tumor cell lines were established from 4 different MMTV-PyMT tumor bear mice. Mouse breast tumor cell line 7333 was implanted into wild-type littermates and once the tumor formed it was removed and used to generate the tumor cell line “MMTV”. All cells were plated at 1E4 cells/well in a 96 well plate. Cells were treated for 48 hours and CellTiter-Glo was used to assess cell viability.

tumor macrophages [3] = assay: New vs. pre-existing macrophage dextran experiment; format: in vivo, mouse; conditions: 5 days of TMP195 vs vehicle
Method: MMTV-PyMT tumor-bearing mice were injected with 0.25 mg/mouse (10 mpk) low molecular weight (10,000 MW) Alexa555-labelled dextran (Life Technologies D34679) which is readily taken up by phagocytic cells. Mice were then treated for 5 consecutive days with DMSO or TMP195. Two hours before the mice were sacrificed they were injected with 0.25 mg/mouse of another low molecular weight (10,000 MW) dextran, this time labeled with Alexa594 (Life Technologies D22913)14. Tumors were collected as described above and flow cytometry was performed. […] Mice that received only one of the dextran conjugates were used as controls for flow cytometry.

[4] = IL-4 and GM-CSF, 5 days, 300 nM TMP195 vs 0.1% DMSO

SMILES: CC(C)(CNC(=O)c1cccc(-c2noc(C(F)(F)F)n2)c1)c1coc(-c2ccccc2)n1 [TMP195, N-(2-methyl-2-(2-phenyloxazol-4-yl)propyl)-3-(5-(trifluoromethyl)-1,2,4-oxadiazol-3-yl)benzamide]
- T cell co-stimulatory function of monocytes differentiated to antigen presenting cells (Human monocytes; [4]): promoted T cell co-stimulatory function
- proportion of cells expressing the co-stimulatory molecule CD86 (Human monocytes; [4]): increase
- proliferation (Division Index) of CFSE-labeled naive CD4+ T cells co-cultured with differentiated monocytes (Human monocytes; monocytes differentiated in 300 nM TMP195 vs DMSO, 10:1 T cell:APC): higher degree of proliferation
- apoptotic bodies within tumor macrophages (cleaved caspase 3 IHC) (tumor macrophages [1]; 5 days of TMP195): appearance of apoptotic bodies
- intracellular EPCAM in F480+ and CD11b+ cells (phagocytosed breast tumor cells) (tumor macrophages [1]; 5 days of TMP195): co-stain as EPCAM^+
- cells resembling tingible body macrophages (F480 IHC) (tumor macrophages [1]; 5 days of TMP195 vs vehicle): marked appearance
- proportion of F480+ and CD11b+ cells that express CD40 (tumor macrophages [1]; 5 days of TMP195 vs vehicle): higher proportion
- cell viability, 6 human breast cancer cell lines [2]: not directly cytotoxic; also recorded: does not affect cell viability
- number of new macrophages in the tumor (tumor macrophages [3]): increases
- number of pre-existing macrophages in the tumor (tumor macrophages [3]): not and without affecting
